Assays:
Assay type in all cases: functional
HeLa = experiment: Cytotoxic activity against human cervical adenocarcinoma-derived HeLa cell lines
NCI/ADR-RES = experiment: Cytotoxic activity against MCF-7/ADR cell lines; details: Homo sapiens
MCF7 = experiment: Cytotoxic activity against human breast tumor-derived MCF-7 cell lines

Row | SMILES | GI50 (HeLa) | GI50 (NCI/ADR-RES) | GI50 (MCF7)
1 | COc1ccc(NS(=O)(=O)c2c(F)c(F)cc(F)c2F)cc1 | > 50 µM | > 50 µM | > 50 µM
2 | COc1ccc(NS(=O)(=O)c2ccc(F)c(F)c2F)cc1 | > 50 µM | > 50 µM | > 50 µM
3 | COc1ccc(NS(=O)(=O)c2c(F)c(F)c(Br)c(F)c2F)cc1 | 17 µM | 21 µM | 36 µM
4 | COc1ccc(NS(=O)(=O)c2c(F)c(F)c(F)c(Br)c2F)cc1 | 0.22 µM | 0.19 µM | 0.27 µM
5 | COc1ccc(NS(=O)(=O)c2c(F)cc(F)cc2F)cc1 | > 50 µM | > 50 µM | > 50 µM
6 | COc1ccc(NS(=O)(=O)c2cc(F)c(F)c(F)c2F)cc1 | 0.37 µM | 0.4 µM | 0.12 µM
7 | COc1ccc(NS(=O)(=O)c2c(F)cc(F)c(F)c2F)cc1 | 5.8 µM | 4.5 µM | 4.5 µM
8 | COc1ccc(NS(=O)(=O)c2cc(F)c(F)c(F)c2)cc1 | 3.9 µM | 3.4 µM | 2 µM
9 | COc1ccc(NS(=O)(=O)c2c(F)c(F)c(F)c(F)c2Br)cc1 | 0.16 µM | 0.16 µM | 0.039 µM
10 | COc1ccc(NS(=O)(=O)c2cc(F)c(Cl)c(F)c2F)cc1 | 21 µM | 22 µM | 44 µM
11 | COc1ccc(NS(=O)(=O)c2c(F)c(F)c(F)c(F)c2F)cc1 | 0.099 µM | 0.058 µM | 0.029 µM
12 | COc1ccc(NS(=O)(=O)c2c(F)c(Cl)c(F)c(Cl)c2F)cc1 | 0.096 µM | 0.058 µM | 0.037 µM
13 | CC(=O)O[C@H]1C(=O)[C@@]2(C)[C@H]([C@H](OC(=O)c3ccccc3)[C@]3(O)C[C@H](OC(=O)[C@H](O)[C@@H](NC(=O)c4ccccc4)c4ccccc4)C(C)=C1C3(C)C)[C@]1(OC(C)=O)CO[C@@H]1C[C@@H]2O [PACLITAXEL] | 0.007 µM | > 50 µM | 0.0011 µM

Reference: ChEMBL document CHEMBL1132128, “Novel halogenated sulfonamides inhibit the growth of multidrug resistant MCF-7/ADR cancer cells” (1999)
